In PubChem BioAssay (NCI):
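In this assay, cells in 96-well plates receive the compound at five concentrations for 48 hours. Endpoints are linearly interpolated between the surrounding concentrations. TGI: concentration producing complete growth inhibition.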

How the values were obtained:
Assay in all cases: NCI-60 cell line screen, 48 h
CAKI-1 renal = tested on: CAKI-1 renal
HCC-2998 colon = tested on: HCC-2998 colon
HOP-62 NSCLC = tested on: HOP-62 NSCLC
KM12 colon = tested on: KM12 colon
LOX IMVI melanoma = tested on: LOX IMVI melanoma
MDA-MB-231 breast = tested on: MDA-MB-231 breast
MDA-N = tested on: MDA-N
MOLT-4 leukemia = tested on: MOLT-4 leukemia
NCI-H226 lung = tested on: NCI-H226 lung
NCI-H23 lung = tested on: NCI-H23 lung
NCI-H460 lung = tested on: NCI-H460 lung
NCI-H522 lung = tested on: NCI-H522 lung
SF-268 CNS = tested on: SF-268 CNS
SF-539 CNS = tested on: SF-539 CNS
SK-MEL-28 melanoma = tested on: SK-MEL-28 melanoma
SK-OV-3 ovarian = tested on: SK-OV-3 ovarian
SN12C renal = tested on: SN12C renal
SR leukemia = tested on: SR leukemia

SMILES	TGI (CAKI-1 renal) [µM]	TGI (HCC-2998 colon) [µM]	TGI (HOP-62 NSCLC) [µM]	TGI (KM12 colon) [µM]	TGI (LOX IMVI melanoma) [µM]	TGI (MDA-MB-231 breast) [µM]	TGI (MDA-N) [µM]	TGI (MOLT-4 leukemia) [µM]	TGI (NCI-H226 lung) [µM]	TGI (NCI-H23 lung) [µM]	TGI (NCI-H460 lung) [µM]	TGI (NCI-H522 lung) [µM]	TGI (SF-268 CNS) [µM]	TGI (SF-539 CNS) [µM]	TGI (SK-MEL-28 melanoma) [µM]	TGI (SK-OV-3 ovarian) [µM]	TGI (SN12C renal) [µM]	TGI (SR leukemia) [µM]
Nc1c2ccccc2nc2ccc(C(=O)Nc3ccc(S(N)(=O)=O)cc3)cc12	> 100	> 100	> 100	> 100	> 100	> 100	> 100	> 100	> 100	> 100	> 100	> 100	> 100	> 100	> 100	> 100	> 100	> 100
O=S(=O)(CC#CCS(=O)(=O)c1ccccc1)c1ccccc1	3.42	35.8	20.7	28.1	3.32	26.5	4.16	> 42.2	34.7	12.2	38.9	1.63	12.5	6.86	25.7	27.5	12.4	> 100
CN(C)CCCNc1ccc2nnn3c4ccc([N+](=O)[O-])cc4c(=O)c1c23	12.9	10.4	8.51	4.53	2.22	2.95	15.9	5.63	3.02	8.61	1.57	17	12	14.2	17.2	16	9.5	6.03
C[N+]12C=CC=C1C(N1CCCC1)c1sc(-c3ccc(Cl)cc3)cc12 (stereo unspecified)	> 100	29.2	31.3	33.4	29.5	35.5	30.4	53.5	35.3		32.6	27	34.3		31.6	32.8	27.9	50.1
COc1cccc2c(NNc3ccc(Cl)cc3)c3ccc([N+](=O)[O-])cc3nc12	15.2	53	24.2	> 100	36.1	27.5	> 100	11.5	36.8	33.4	17.2	21.1	28.1	33	> 100	32.5	75.3	4
Cc1ccc(-c2cn3c(nc4ccccc43)c(C)n2)cc1	> 100	> 100	> 100	> 100	> 100	> 100	> 100	> 100	> 100	> 100	> 100	> 100	> 100	> 100	> 100	41.5	> 100	> 100
O=C1NC(N2CCCC(CO)C2)=N/C1=C\c1ccc(O)cc1 (stereo unspecified)	> 100	> 100	> 100	> 100	> 100	> 100	> 100	> 100	> 100	> 100		> 100	> 100	> 100	> 100	> 100	> 100	> 100
C=CCn1c(=O)c(-c2ccccc2)c(O)c2ccccc21	> 100	> 100	> 100	> 100	> 100	> 100	> 100	> 100	> 100	> 100	> 100	> 100	> 100	> 100	> 100		> 100	> 100
CC(C)(C)OC(=O)N1CC(COS(C)(=O)=O)c2ccc(O)cc21 (stereo unspecified)	9.62	0.991	8.05	7.16		8.41	3.98	3.92	4.67	3.05	5.45	2.39	4.33	3.84	3.8	8.88	6.77	5.31
CCC1(CC)C(=O)N(C(=O)c2ccc(Cl)cc2)N(C(=O)c2ccccc2Cl)C1=O	> 100	> 100	> 100	> 100	50.3	> 100	> 100	52.2	31.5	> 100	41.8	48.1	> 100		> 100	> 100	> 100	> 100
COC(=O)C(I(OS(=O)(=O)c1ccc(C)cc1)c1ccccc1)=P(c1ccccc1)(c1ccccc1)c1ccccc1	> 100	34.8	36.8	34.2		75.6	31.5	84.4	23.2	34.1	> 100	27.7	33.4	34.9	28.7	52.4	> 100	49.7
